In patent US20250346903A1, “USE OF CONJUGATES OF MICRORNA AND CARDIAC TARGETING PEPTIDES FOR TREATING HEART FAILURE” (Georgetown University, priority 2022, published 2025):

Experiments:
GRK2 = experiment: Western blot of GRK2 in PE/Ang2-treated HCMs; type: cell-based, human; settings: HCMs PE/Ang2 72 hours, then miRNA transfection
Procedure: The effects of miRNA17, miRNA20a, miRNA93, and miRNA106a on GRK2 signaling were assessed in HCMs treated with PE/Ang2. GRK2 has been identified to cause heart failure when mis-expressed.
The HCMs were subjected to 72 hours of PE/Ang2 treatment, and were subsequently treated with miRNA17, miRNA20a, miRNA93, or miRNA106a, or with the CTP-miRNA106a conjugate.

NfκB response element = NfκB response element luciferase assay in HCMs; type: cell-based, human; settings: Ang2/PE 24 hours, miRNAs transfected
Excerpt: Once in the nucleus NfκB binds to an NfκB response element to initiate transcription of downstream genes. To study how the CTP-miRNA106a conjugate can impact this effect, a plasmid containing an NfκB response element driving luciferase production (Promega, Inc) was used to generate HCMs expressing this NfκB luciferase response element. […] Moreover, the effect of miRNA106a on impacting Ang2/PE-induced luciferase expression in HCMs was compared to miRNA17, miRNA20a, and miRNA93.

CaMKIIδ = experiment: Western blot of CaMKIIδ in PE/Ang2-treated HCMs; type: cell-based, human; settings: 200 nM miRNA transfected, within 72 hours
Procedure: (§1) Human cardiomyocytes (HCMs) were subjected to 200 nM phenylephrine (PE) and 10 nM angiotensin 2 (Ang2) to induce hypertrophy (initial stages of heart failure). The HCMs were treated with PE/Ang2 for 24, 48, 72, 96, or 144 hours. Using TransIT-X2 transfection reagent, 200 nM of each miRNA, or in combination, was introduced into PE/Ang2-treated HCMs, followed by analyses of hypertrophic morphology and heart failure gene/protein expression.
(§2) The CTP-miRNA106a conjugate suppressed translation of each protein, as confirmed in three separate experiments. A significant difference was observed between each of the CTP-miRNA106a conjugate-treated set and PE/Ang2-treated HCMs after 144 hours, and no significant difference was observed between each of the CTP-miRNA106a conjugate-treated HCMs and untreated HCMs.

HDAC4 [1] = experiment: Western blot of HDAC4 in PE/Ang2-treated HCMs; type: cell-based, human; settings: 200 nM miRNA transfected, within 72 hours
Procedure: as §1, §2

HCMs = experiment: Mitochondrial membrane potential, JC-1 staining of HCMs; type: cell-based, human; settings: 200 nM miRNA106a transfected, 72 hours
Procedure: The effects of miRNA106a on mitochondrial health was assessed using the mitochondrial membrane potential (MMP) probe JC-1 staining. Healthy MMP is observed as JC-1 forms J-aggregates that fluoresce red (˜594 nm) while unhealthy MMP is recognized as green (˜488 nm) JC-1 monomers.

[2] = system: Human cardiomyocytes (HCMs); experiment: Hypertrophic morphology / cell size of PE/Ang2-treated HCMs; type: cell-based; settings: 200 nM transfection, 72 hours, no PE/Ang2
Procedure: as §1
(§3) HDAC4 localization was also rescued by the CTP-miRNA106a conjugate. HDAC4 is nuclear in untreated HCMs (see FIG. 4, Panel C), but CaMKIIδ phosphorylation promotes HDAC4 movement into the cytoplasm (see FIG. 4, Panel D) (Hohl et al., 2013).

3′UTR of PLCβ1 = experiment: PLCβ1 3′UTR luciferase assay in HEK293 cells; type: cell-based, human; settings: miRNA transfected 24 hours after plasmid
HDAC4 3′UTR = experiment: 3′UTR-luciferase assay, HDAC4; type: cell-based, human; settings: miRNA106a with transfection reagent
GRK2 3′UTR = experiment: 3′UTR-luciferase assay, GRK2 (control); type: cell-based, human; settings: miRNA106a with transfection reagent; control without target sequence
IL-1β = experiment: FACS of IL-1β expressing HCMs; type: cell-based, human; settings: miR106a (without CTP) transfected, then Ang2/PE
Excerpt: (§4) To identify if activation of the NfκB pathway by Ang2/PE led to expression of genes that augment hypertrophy and heart failure, HCMs treated with Ang2/PE or treated with both Ang2/PE and the CTP-miRNA106a conjugated were compared to untreated control HCMs by FACS. […] In summary, the CTP-miRNA106a conjugated suppressed NfκB signaling activated by Ang2/PE.

HDAC4 [3] = experiment: HDAC4 localization by immunofluorescence in HCMs; type: cell-based, human; settings: HCMs PE/Ang2 72 hours, treatment 24 hours
Excerpt: as §3

TNF-α = experiment: FACS of TNF-α expressing HCMs; type: cell-based, human; settings: miR106a transfected, then Ang2/PE
Excerpt: as §4

CaMKIIδ 3′UTR = experiment: 3′UTR-luciferase assay, CaMKIIδ; type: cell-based, human; settings: miRNA106a with transfection reagent
IL-6 = experiment: FACS of IL-6 expressing HCMs; type: cell-based, human; settings: miR106a transfected, then Ang2/PE
Excerpt: as §4

Connexin 43 (CNX43) = experiment: CNX43 phosphorylation in HCMs (immunostaining); type: cell-based, human; settings: HCMs treated with PMA as a control
Procedure: Gap junction protein Connexin 43 (CNX43) is a known downstream target of PKC activity in cardiomyocytes. Thus, the effects of Ang2/PE and the CTP-microRNA106a on CNX43 in HCMs were studied. CNX43 is phosphorylated on serine 386 by PKCα. In untreated HCMs, gap junctions are prevalent (FIG. 14, Panel A), although only a few junctions are positive for phosphorylation of CNX43 (FIG. 14, Panel B). […] Phosphorylated CNX43 becomes widespread as HCMs are treated with Ang2/PE for 24 hours (FIG. 14, Panels E and F).

PKC = PKC localization in HCMs (anti-PKCα staining); type: cell-based, human; settings: PMA 30 minutes
Excerpt: One potential mechanism of increased PLCβ1 expression is increased PKC activity. Thus, PKC localization was studied in treated HCMs. […] In HCMs treated with Ang2/PE, PKC was translocated to the plasma membrane (FIG. 12, Panel C).

Compound	GRK2 expression (GRK2)	NfκB response element luciferase expression (NfκB response element)	CaMKIIδ overexpression induced by PE/Ang2 (CaMKIIδ)	HDAC4 overexpression induced by PE/Ang2 (HDAC4 [1])	JC-1 red:green ratio versus untreated (HCMs)	growth in size (hypertrophy) in response to miRNA106a alone [2]	decrease of luciferase activity (3′UTR of PLCβ1) [%]	HDAC4 3′UTR luciferase expression (HDAC4 3′UTR)	GRK2 3′UTR luciferase expression (GRK2 3′UTR)	IL-1β expression (IL-1β)	HDAC4 localization (HDAC4 [3])	TNF-α expression (TNF-α)	CaMKIIδ 3′UTR luciferase expression (CaMKIIδ 3′UTR)	IL-6 expression (IL-6)	phosphorylated CNX43 (Connexin 43 (CNX43))	PKC localization (PKC)
miRNA17: microRNA, RNA sequence CAAAGUGCUUACAGUGCAGGUAG (SEQ ID NO 2) (listed as RNA, chemistry not given here)	returned to baseline levels	suppressed luciferase expression significantly	suppressed	suppressed												
miRNA106a: microRNA, RNA sequence AAAAGUGCUUACAGUGCAGGUAG (SEQ ID NO 1) (chemistry not given here)	returned to baseline levels	suppressed luciferase expression significantly	suppressed	suppressed	no significant difference in red:green ratios	did not appear to grow in size	~80	targets the 3′UTRs of both CaMKIIδ and HDAC4	no change in luciferase expression	reversal of IL-1ß expression back to normal, untreated levels	HDAC4 re-entry into the nucleus	very similar results as IL-1β	targets the 3′UTRs of both CaMKIIδ and HDAC4	very similar results as IL-1β		
CCCCCCCCCCCCCC(=O)O[C@@H]1[C@@H](C)[C@@]2(O)[C@@H](C=C(CO)C[C@]3(O)C(=O)C(C)=C[C@@H]23)[C@@H]2C(C)(C)[C@]12OC(C)=O [PMA, phorbal myristate acetate]															the phosphorylation patterns are more robust	localized to the plasma membrane
miRNA20a: microRNA, RNA sequence UAAAGUGCUUAUAGUGCAGGUAG (SEQ ID NO 3) (listed as RNA, chemistry not given here)	returned to baseline levels	lowered luciferase expression	suppressed	suppressed												
miRNA93: microRNA, RNA sequence CAAAGUGCUGUUCGUGCAGGUAG (SEQ ID NO 4) (listed as RNA, chemistry not given here)	returned to baseline levels	lowered luciferase expression	suppressed	suppressed			~50									
